From US20250228865A1, “COMPOUNDS FOR ENHANCING READ THROUGH OF GENES CONTAINING PREMATURE TERMINATION CODONS AND METHODS FOR MAKING AND USING THE SAME” (Sanofi US Services Inc., priority 2022, published 2025)

Assays:
[1] = tested on: CFTR R1162X; assay: Functional CFTR channel activity, TECC-24 electrophysiology, 16HBE cells (CFTR R1162X readthrough); format: cell-based, human
Description: 16HBE human bronchial epithelial cells were seeded onto Transwell 24-well filter inserts coated with human collagen type IV. Cells were seeded 7 days prior to functional testing at a density of 1.7×10^5 cells onto the “apical” chamber filter of the Transwell insert. Cells were grown as submerged cultures (200 μL apical/700 μL basolateral) in Minimal Essential Medium (MEM) containing 10% qualified Fetal Bovine Serum and 1% Penicillin/Streptomycin and incubated at 37° C. and 5% CO2. Growth media on cells was replenished with fresh media every 1-3 days prior to test agent treatment day. After 7 days in culture, the CFTR-mediated chloride (Cl^−) equivalent current (Ieq) of the 16HBE cells was recorded, which may typically form electrically tight epithelia with a transepithelial resistance (Rt) of 2000-6000 Ω·cm2 as described below. Forty-eight hours prior to electrophysiological measurements, fresh growth media containing the test agents was applied to both chambers separating filter bound epithelial monolayer.
On the day of electrophysiology studies, electrodes of a “Multi-(24-channel) transepithelial current clamp amplifier” (MTECC-24 (TECC-24 for short), EP Devices, Belgium) were soaked in an assay buffer (see below for composition) for at least 2 hours using 24-well Transwell plates without inserts. Cell culture media was replaced in the Transwell assay plates with assay buffer (see below) and the plates were mounted onto a custom-built automated robotic assay platform (Yamaha RCX240S controller) with heated plate holders set at 37° C. for 60 min. After equilibration, transepithelial potential difference (PD) and resistance (Rt) was monitoredat ˜5 min intervals using the TECC-24 transepithelial current clamp. Electrode potential differences were monitored for each pair of Ag/AgCl voltage electrodes by taking voltage measurements from a control (“blank”) plate with matching buffer solutions and 16HBE cells that were not treated with any test agent. PD values for each electrode pair were subtracted from the blank plate from that of the test plates at each time point. Ieq was calculated from the corrected PD values and Rt using Ohm's law. Ieq values were slope corrected to account for measurement drift over time using the equation: Slope corrected value=calculated Ieq−((time x slope)+y-intercept) with the slope and y-intercept calculated from the data points captured during the initial baseline period and following addition of the CFTR inhibitor.
The equivalent current (Ieq) traces associated with CFTR channel activation were plotted as baseline subtracted mean±standard deviation from 3-4 separate wells on the 24-well Transwell (n=3-4). There are 4 recording periods, with the first set of data points recorded baseline Ieq currents prior to sequential activation of available CFTR channels with forskolin (10 μM) and then in combination with potentiator VX-770/ivacaftor (1 μM). Recorded the last set of data points in the presence of CFTR inhibitor CFTRinh-172 (20 μM) to confirm that currents are mediated via activation of CFTR channels. The test agents and control/reference compounds were pre-diluted to 10-fold concentrations in assay buffer and added manually using a multi-channel pipette to both the basolateral and apical side of the membrane (test plates only). Employed CFTR-mediated changes in Ieq, (i.e. forskolin/VX-770 activated currents) to measure functional CFTR surface expression or treatment-related functional rescue of mutant CFTR.
The magnitude of test agent mediated enhancement of functional CFTR currents was calculated by comparing forskolin/VX-770 stimulated Ieq relative to baseline/CFTRinh-172 Ieq following 48 hour pretreatment with test agent(s) and normalizing to the forskolin/VX-770 stimulated Ieq determined following 48 hour pretreatment with a maximally effective concentration a reference control aminoglycoside agent (typically 110 μM G418). […]

[2] = tested on: recombinant human CFTR carrying the premature stop codon (PTC) mutation G542X; assay: CFTR-PTC mutant translation readthrough, Nanoluc tagged CFTR luminescence (G542X cell line); format: cell-based; conditions: in combination with G418, G542X cell line; for CFTR G542X ACTIVITY Fold 10 μM G-418: fold over 10 μM G-418; for EC50: 16HBE cells
Procedure, shortened: (§1)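 16HBE cells stably expressing Nanoluc-tagged human CFTR with G542X or R1162X, in medium with 3 μM VX-809, treated 48 h at 37 °C with compound (10-point, 2-fold, top 50 μM final) alone or with 10 μM G418. Live-cell Nanoluc luminescence normalised to a maximally effective G418 (125-250 μM).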

[3] = tested on: recombinant human CFTR carrying the premature stop codon (PTC) mutation R1162X; assay: CFTR-PTC mutant translation readthrough, Nanoluc tagged CFTR luminescence (R1162X cell line); format: cell-based; conditions: for CFTR R1162X ACTIVITY Fold 10 μM G-418: fold over 10 μM G-418, in combination with G418; for EC50: in combination with G418, 16HBE cells, read-out: CFTR R1162X ACTIVITY EC50
Procedure, shortened: as §1

[4] = RTM conc. —, eRF3 modulator (CC-90009) 1 uM, ELX-02 100 uM
[5] = RTM 1 uM, eRF3 modulator (CC-90009) 1 uM, ELX-02 100 uM
[6] = RTM 5 uM, no eRF3 modulator, G418 10 uM
[7] = RTM 1 uM, no eRF3 modulator, ELX-02 100 uM

OCc1ncn(-c2ncc(OCc3c(Cl)cccc3C(F)(F)F)cn2)n1 [drawing 811]
Currents (% of 110 μM G418 (Max effect)) [1, 4]: 77 % of 110 μM G418 (Max effect)

OCc1ccn(-c2ncc(OCc3c(Cl)cccc3Cl)cn2)n1 [drawing 803]
Currents (% of 110 μM G418 (Max effect)) [1, 5]: 300 % of 110 μM G418 (Max effect)

OCc1cn(-c2ncc(OCc3c(Cl)cccc3Cl)cn2)cn1 [drawing 814]
Currents (% of 110 μM G418 (Max effect)) ([1]; RTM 0.5 uM, eRF3 modulator (CC-90009) 1 uM, Paramomycin 2000 uM): 183 % of 110 μM G418 (Max effect)

OCc1cn(-c2ncc(OCc3c(Cl)cccc3Cl)cn2)cn1 [drawing 800]
Currents (% of 110 μM G418 (Max effect)) ([1]; RTM 0.5 uM, eRF3 modulator (CC-90009) 1 uM, ELX-02 100 uM): 473 % of 110 μM G418 (Max effect)

OCc1ncn(-c2ncc(OCc3c(Cl)cccc3C(F)(F)F)cn2)n1 [drawing 812]
Currents (% of 110 μM G418 (Max effect)) ([1]; RTM 3 uM, eRF3 modulator (CC-90009) 1 uM, ELX-02 100 uM): 288 % of 110 μM G418 (Max effect)

O=C1O[C@H](CO)CN1c1ccc(OCc2c(Cl)cccc2Cl)cc1 [drawing 817]
Currents (% of 110 μM G418 (Max effect)) [1, 6]: 54 % of 110 μM G418 (Max effect)

Cc1cccc(C(F)(F)F)c1COc1ccc(-c2nc(CO)n[nH]2)cc1 [drawing 806]
Currents (% of 110 μM G418 (Max effect)) [1, 5]: 269 % of 110 μM G418 (Max effect)

OCc1cn(-c2ncc(OCc3c(Cl)cccc3Cl)cn2)cn1 [drawing 813]
Currents (% of 110 μM G418 (Max effect)) ([1]; RTM 0.5 uM, no eRF3 modulator, Paramomycin 2000 uM): 7 % of 110 μM G418 (Max effect)

OCc1cn(-c2ncc(OCc3c(Cl)cccc3Cl)cn2)cn1 [drawing 799]
Currents (% of 110 μM G418 (Max effect)) ([1]; RTM 0.5 uM, no eRF3 modulator, ELX-02 100 uM): 51 % of 110 μM G418 (Max effect)

O=C1O[C@@H](CO)CN1c1ccc(OCc2c(Cl)cccc2Cl)cc1 [drawing 819]
Currents (% of 110 μM G418 (Max effect)) [1, 6]: 81 % of 110 μM G418 (Max effect)

Cc1cccc(C(F)(F)F)c1COc1ccc(-c2nc(CO)n[nH]2)cc1 [drawing 805]
Currents (% of 110 μM G418 (Max effect)) [1, 4]: 63 % of 110 μM G418 (Max effect)

OCc1cn(-c2ncc(OCc3c(Cl)cccc3Cl)cn2)cn1 [drawing 797]
Currents (% of 110 μM G418 (Max effect)) ([1]; RTM 0.5 uM, no eRF3 modulator, G418 10 uM): 64 % of 110 μM G418 (Max effect)

Cc1cccc(C(F)(F)F)c1COc1ccc(-c2nc(CO)n[nH]2)cc1 [drawing 804]
Currents (% of 110 μM G418 (Max effect)) [1, 7]: 106 % of 110 μM G418 (Max effect)

OCc1ncn(-c2ncc(OCc3c(Cl)cccc3C(F)(F)F)cn2)n1 [drawing 810]
Currents (% of 110 μM G418 (Max effect)) ([1]; RTM 3 uM, no eRF3 modulator, ELX-02 100 uM): 102 % of 110 μM G418 (Max effect)

O=C1O[C@@H](CO)CN1c1ccc(OCc2c(Cl)cccc2Cl)cc1 [drawing 820]
Currents (% of 110 μM G418 (Max effect)) ([1]; RTM 5 uM, eRF3 modulator (CC-90009) 10 uM, G418 10 uM): 320 % of 110 μM G418 (Max effect)

OCc1cn(-c2ncc(OCc3c(Cl)cccc3Cl)cn2)cn1 [drawing 798]
Currents (% of 110 μM G418 (Max effect)) ([1]; RTM 0.5 uM, eRF3 modulator (CC-90009) 1 uM, G418 10 uM): 472 % of 110 μM G418 (Max effect)

O=C1N[C@H](CO)CN1c1ccc(OCc2c(Cl)cccc2Cl)cn1 [drawing 807]
Currents (% of 110 μM G418 (Max effect)) [1, 7]: 70 % of 110 μM G418 (Max effect)

O=C1N[C@H](CO)CN1c1ccc(OCc2c(Cl)cccc2Cl)cn1 [drawing 808]
Currents (% of 110 μM G418 (Max effect)) [1, 4]: 63 % of 110 μM G418 (Max effect)

O=C1N[C@H](CO)CN1c1ccc(OCc2c(Cl)cccc2Cl)cn1 [drawing 809]
Currents (% of 110 μM G418 (Max effect)) [1, 5]: 266 % of 110 μM G418 (Max effect)

OCc1ccn(-c2ncc(OCc3c(Cl)cccc3Cl)cn2)n1 [drawing 801]
Currents (% of 110 μM G418 (Max effect)) [1, 7]: 102 % of 110 μM G418 (Max effect)

OCc1ccn(-c2ncc(OCc3c(Cl)cccc3Cl)cn2)n1 [drawing 802]
Currents (% of 110 μM G418 (Max effect)) [1, 4]: 63 % of 110 μM G418 (Max effect)

Cc1cccc(C(F)(F)F)c1COc1ccc(N2CC(CO)OC2=O)cc1 (stereo not shown) [drawing 815]
Currents (% of 110 μM G418 (Max effect)) ([1]; RTM 1 uM, no eRF3 modulator, G418 10 uM): 76 % of 110 μM G418 (Max effect)

Cc1cccc(C(F)(F)F)c1COc1ccc(N2CC(CO)OC2=O)cc1 (stereo not shown) [drawing 816]
Currents (% of 110 μM G418 (Max effect)) ([1]; RTM 1 uM, eRF3 modulator (CC-90009) 1 uM, G418 10 uM): 423 % of 110 μM G418 (Max effect)

NCC1CCCN(c2ncc(OCc3c(Cl)cccc3Cl)cn2)C1 (stereo not shown) [[1-[5-[(2,6-dichlorophenyl)methoxy]pyrimidin-2-yl]-3-piperidyl]methanamine]
CFTR G542X ACTIVITY Fold 10 μM G-418 [2]: A′ (A′ = ≥10X) | EC50 [2]: < 1000 nM | CFTR R1162X ACTIVITY Fold 10 μM G-418 [3]: A′ (A′ = ≥10X) | EC50 [3]: < 1000 nM

O=C1OC(CO)CN1c1ccc(CCc2c(Cl)cccc2Cl)cc1 (stereo not shown) [3-[4-[2-(2,6-dichlorophenyl)ethyl]phenyl]-5-(hydroxymethyl)oxazolidin-2-one]
CFTR G542X ACTIVITY Fold 10 μM G-418 [2]: C′ (C′ = <5X) | EC50 [2]: 1000 to 10000 nM | CFTR R1162X ACTIVITY Fold 10 μM G-418 [3]: B′ (B′ = ≥5X to <10X) | EC50 [3]: > 10000 nM

Cc1cccc(C(C)(F)F)c1COc1cnc(N2CCN(C(N)=O)CC2)nc1
CFTR G542X ACTIVITY Fold 10 μM G-418 [2]: A′ (A′ = ≥10X) | EC50 [2]: < 1000 nM | CFTR R1162X ACTIVITY Fold 10 μM G-418 [3]: A′ (A′ = ≥10X) | EC50 [3]: < 1000 nM

Cc1cccc(C(F)(F)F)c1COc1ccc(-n2cnc(CO)n2)nc1
CFTR G542X ACTIVITY Fold 10 μM G-418 [2]: A′ (A′ = ≥10X) | EC50 [2]: < 1000 nM | CFTR R1162X ACTIVITY Fold 10 μM G-418 [3]: A′ (A′ = ≥10X) | EC50 [3]: < 1000 nM

OCc1ncn(-c2ccc(OCc3c(Cl)cccc3Cl)cc2)n1 [[1-[4-[(2,6-dichlorophenyl)methoxy]phenyl]-1,2,4-triazol-3-yl]methanol]
CFTR G542X ACTIVITY Fold 10 μM G-418 [2]: A′ (A′ = ≥10X) | EC50 [2]: 1000 to 10000 nM | CFTR R1162X ACTIVITY Fold 10 μM G-418 [3]: A′ (A′ = ≥10X) | EC50 [3]: 1000 to 10000 nM

Clc1cccc(Cl)c1COc1cnc(N2CC3CC2CO3)nc1 (stereo not shown)
CFTR G542X ACTIVITY Fold 10 μM G-418 [2]: A′ (A′ = ≥10X) | EC50 [2]: 1000 to 10000 nM | CFTR R1162X ACTIVITY Fold 10 μM G-418 [3]: A′ (A′ = ≥10X) | EC50 [3]: 1000 to 10000 nM

Cc1cccc(C(C)(F)F)c1COc1ccc(-n2cc(CO)nn2)cc1
CFTR G542X ACTIVITY Fold 10 μM G-418 [2]: B′ (B′ = ≥5X to <10X) | EC50 [2]: 1000 to 10000 nM | CFTR R1162X ACTIVITY Fold 10 μM G-418 [3]: B′ (B′ = ≥5X to <10X) | EC50 [3]: 1000 to 10000 nM

NCc1nnc(-c2ccc(OCc3c(Cl)cccc3Cl)cc2)o1 [Example 226, [5-[4-[(2,6-dichlorophenyl)methoxy]phenyl]-1,3,4-oxadiazol-2-yl]methanamine]
CFTR G542X ACTIVITY Fold 10 μM G-418 [2]: B′ (B′ = ≥5X to <10X) | EC50 [2]: 1000 to 10000 nM | CFTR R1162X ACTIVITY Fold 10 μM G-418 [3]: B′ (B′ = ≥5X to <10X) | EC50 [3]: 1000 to 10000 nM
